# Results from patent US20260364124A1, “ANTI-C. DIFFICILE SMALL MOLECULE METABOLITES FROM DIET AND GUT MICROBIOME” (The Children's Medical Center Corporation, priority 2023, published 2026).
# Entries after “also recorded” stand apart in the source; their conditions may differ.
# System: B. uniformis AgshD
# Test: In vitro aglycone liberation by B. uniformis gshD deletion mutant (LC-MS)
# Parameters: species or system Bacteroides uniformis ATCC 8492
# Conditions: role: substrate; B. uniformis AgshD (FIGS. 5A, 5B)
# Protocol: FIGS. 5A and 5B show microbiome-mediated polyphenol aglycone liberation. […] Step 2: Spent media was filter-sterilized. Step 3: C. difficile was grown in spent media from either vehicle or polydatin (top).
# Generation of Bacteroides gene deletion mutants: Clean deletion mutants were created by allelic replacement whereby Bacteroides uniformis ATCC 8492 gshD (BACUNI_00919)was deleted. A modified pKNOCK-bla-ermGb suicide vector, pKNOCK-bla-ermGb_pheS*, that was previously engineered with a counter-selection system mediated by a variant phenylalanyl-tRNA synthetase (PheSA303G), lethal in the presence of 4-chloro-phenylalanine was leveraged. To generate deletion constructs, 1 kb regions flanking the genomic region-of-interest were amplified by PCR (Platinum SuperFi PCR Master Mix), purified, and cloned into the pKNOCK-bla-ermGb_pheS* plasmid in a three-piece ligation reaction. To mobilize resulting plasmids into Bacteroides, a triparental mating strategy was implemented. Overnight cultures of Bacteroides grown in BSG were diluted 50-fold into fresh pre-reduced BSG and grown to early exponential phase (OD600 ~0.1). The recipient strain was centrifuged at 4,000 rpm for 5 minutes and resuspended in 200 μL of 1× PBS. One-day-old E. coliDH5α lambda pir donor strain and E. coliDH5α helper strain with pRK 231 were scrapped from LB agar plates into 200 μL of 1× PBS. […]
smiles,measurement,value
OC[C@H]1O[C@@H](Oc2cc(O)cc(/C=C/c3ccc(O)cc3)c2)[C@H](O)[C@@H](O)[C@@H]1O [polydatin],liberation of resveratrol from polydatin by gshD mutant,lacking the ability to metabolize polydatin; also recorded: ablated in B. uniformis AgshD
